US10973896B2, “Treatment or prevention of melanoma using photochemical internalization of a melanoma antigen” (PCI Biotech AS, priority 2014, dated 2021)

How the values were obtained:
[1] = system: SIINFEKL-specific CD8 T cells; assay: Intradermal PCI immunisation, antigen-specific CD8 T cells in blood by pentamer flow cytometry (Example 1); format: in vivo, C57BL/6 mice; conditions: 10 μg OVA with or without 100 μg TPCS2a i.d., skin illuminated 18 hours later; FIG. 1A
Method: C57BL/6 mice were immunised at 6-10 weeks of age. One day prior to immunisation, 10,000 OT-I spleen and lymph node cells were administered by intravenous injection into the recipient C57BL/6 mice (see Example 2). The next day, the fur was shaven off the abdominal region and 100 μl of the vaccine preparations were injected intradermally. The doses of OVA and TPCS2a were 10 μg and 100 μg, respectively. After 18 hours, the anaesthetised mice were placed on the light source for six minutes illumination (4.86 J/cm2) for activation of TPCS2a.
The frequency of antigen-specific CD8 T cells was monitored in blood and spleen by flow cytometry using H-2K^b/SIINFEKL Pro5 pentamer (Proimmune, Oxford, UK). Cell-surface expression of CD4, CD8, and CD44 and intracellular production of IFN-γ was analysed by flow cytometry after Fc-receptor blocking with anti-CD16/32. The intracellular staining was after overnight incubation at 37° C. with 0.1 μg SIINFEKL. Brefeldin A (2.5 μg/ml) was added during the last 4 hours. The cells were fixed with 4% formaldehyde for 10 minutes, permeabilised in 0.1% NP40 for 3 minutes, and stained with anti-IFN-γ for 35 minutes. […] Acquisition was performed on FACSCanto (BD Biosciences, San Jose, USA) and data analysed with FlowJo 8.5.2 (Tree Star, Inc., Ashland, Oreg.). […] Supernatants were collected after 24-72 hours and analysed using cytokine ELISA kits (eBioscience).

[2] = system: SIINFEKL-specific CD8 T cells; assay: PCI immunisation of OT-I-spiked mice, SIINFEKL pentamer flow cytometry (Example 2); format: in vivo, C57BL/6 mice
Method: One day prior to the immunisation, spleens and lymph nodes were isolated from female OT-1 mice, and erythrocytes were removed by lysis (RBC Lysing Buffer Hybri-Max from Sigma-Aldrich) from the homogenised cell suspensions. The remaining cells were washed in PBS, filtered through 70 micron nylon strainers, and 2×10^6 OT-1 cells were administered by intravenous injection into recipient female C57BLJ6 mice; the adoptive transfer of SIINFEKL-specific CD8 T cells facilitates monitoring of the immune response by flow cytometry. One day or 8 hours later, mice were bled by tail bleeding, and the blood was collected in heparin-containing tubes for analysis of the baseline frequency of OVA-specific CD8 T cells.
Then, the mice were shaved on the abdominal area, and the vaccines, consisting of OVA or of a mixture of OVA and TPCS2a, were injected intradermally using syringes with 29G needles. The vaccines were kept light protected and used within 60 minutes of preparation. The vaccines were given in two injections of 50 μl each, on the left and right side of the abdominal mid line. OVA was tested at 10 to 100 μg per dose. The TPCS2a dose was 7.5 to 250 μg.
On day 0, prior to vaccination and on various days thereafter (e.g. day 6, 7, 8, 9, 14, 23, as indicated) mice were bled by tail bleeding and erythrocytes were removed by lysis, before analysis of antigen-specific CD8 T cells by flow cytometry. At the end of the experiment (typically 11, 12, 14 or 23 days), the mice were euthanized and the splenocytes analysed ex vivo. At various time points after the TPCS2a injection (0-48 hours), the mice were anaesthetised by intraperitoneal injection of a mixture of ketamine (25 mg/kg body weight) and xylazin (4 mg/kg) and placed on a light source (for illumination and activation of the photosensitiser TPCS2a). The light dose was 6 minutes, if not otherwise stated. The whole procedure is illustrated in the scheme of FIG. 6A. The illumination of mice using LumiSource™ is imaged in FIG. 6B.
The frequency of OVA-specific CD8 T-cells in blood was monitored by staining the cells with anti-CD8 antibody and H-2K^b/SIINFEKL ProS pentamer (Proimmune, Oxford, UK) for analysis by flow cytometry. The activation status of the cells was further analysed by testing the expression of CD44 and CD69 by flow cytometry. Intracellular staining for IFN-γ was done after overnight stimulation of splenocytes in 24-well plates with the CD8 epitope OVA257-264 (SIINFEKL) at 37 ° C. Brefeldin A was added during the last 4 hours. The cells were then washed and fixed with 4% formaldehyde in PBS for 10 min on ice. Anti-CD16/32 was added to block unspecific binding to Fc receptors. The cells were then permeabilised with 0.1% NP40 in PBS for 3 min and washed before staining with anti-IFN-γ, anti-CD8 and ant-CD44 antibodies (eBioscience or BD Pharmingen). The cells were acquired using FACSCanto (BD Biosciences, San Jose, USA) and analysed using FlowJo 8.5.2 software (Tree Star, Inc., Ashland, Oreg.).

**Q.** Which results are given for “OVA: Chicken ovalbumin protein, model antigen expressed by the transfected B16 melanoma cells”?
**A.** frequency of pentamer (H2K^d-SIINFEKL)-binding CD8 T cells in blood [1]: No or little so-called cross priming; effect on SIINFEKL-specific CD8 T cells in blood as compared to untreated animals ([2]; 10 μg OVA alone, data not shown): no measurable effect; activation markers CD44, CD25 and CD69 on SIINFEKL-specific cells in blood ([2]; by day six): strong up-regulation; numbers of antigen-specific CD8 T cells ([2]; day 23, OVA alone, or OVA plus TPCS2a illuminated two hours after administration): retracted to baseline levels; frequencies of measurable SIINFEKL-specific CD8 T cells in splenocytes ([2]; day 54, 20 μg OVA with or without 200 μg TPCS2a, FIG. 14A): not different from untreated mice; frequency of SIINFEKL-specific CD8 T cells in the peripheral blood ([2]; day six, 100 μg OVA alone, or with 25 μg TPCS2a illuminated two hours after vaccination): approximately 3.5%
